Test results from patent US20150133497A1, “GLYCINE REUPTAKE INHIBITOR AND USE THEREOF” (Beijing Medisan Technology Co., Ltd., priority 2011, published 2015).
pKi: −log10 of the molar value.

Assays:
[1] = tested on: spontaneous activity in rats; assay: Effect of test compound on spontaneous activity in rats (LMA); type: in vivo, Wistar rats; settings: 5.0, 10 and 30 mg/kg i.p.; 60 minutes after administration; recorded 30-60 minutes; P>0.05, Dunnett's test
Description: (§1) Animals used for experiments were adult male Wistar rats weighing 180˜250 g, housed in groups of 6/cages, regulated with a 12/12 hour light/dark cycle, maintained at a constant temperature of 23±1° C. and a humidity of 50˜60% and allowed ad libitum access to rodent chow and water. After animals were purchased from the Experimental Animal Center, an adaptive housing was performed for a week, all the animals were randomly divided into two groups:
(§2) Group one: negative control group, intraperitoneally injected with 1% DMSO in physiological saline (10.0 ml/kg, i.p.);
Group two: experimental drug group, the rats were intraperitoneally injected respectively with different doses of test compound Co. 1: 5.0, 10 and 30 mg/kg, i.p., the drug was formulated in 1% DMSO in physiological saline.
The experiment employed Shanghai Jiliang animal behavior video analysis system, wherein the experimental environment was kept absolutely silent, when grabbing animals and administrating, movements were gentle to minimize adverse reactions of mental condition and emotion brought by external stimulus. […] The spontaneous activity box was connected to a recording apparatus and the activity conditions of rats were recorded for 30-60 minutes. The effect of drug or control on spontaneous activity in rats was determined.

[2] = tested on: high-activity behaviors in rats induced by PCP; assay: Effect on high-activity behaviors in rats induced by PCP; type: in vivo, Wistar rats; settings: for inhibition of high-activity behaviors in rats induced by PCP: Co. 1 5, 10 and 30 mg/kg i.p., Olanzepine 10 mg/kg i.p., PCP 5.0 mg/kg s.c., P<0.01 vs PCP group
Description: as §1, with “in group” for “in groups”, “into three” for “into two”
Group 1: negative control group, intraperitoneally injected with 1% DMSO in physiological saline (10.0 ml/kg, i.p.);
Group 2: experimental drug group, the rats were intraperitoneally injected respectively with different doses of test compound Co. 1: 5.0, 10 and 30 mg/kg, i.p., the drug was formulated in 1% DMSO in physiological saline.
Group 3: positive drug control group, the rats were intraperitoneally injected with Olanzepine (10 mg/kg, i.p., the drug was formulated in 1% DMSO in physiological saline)
The experiment employed Shanghai Jiliang animal behavior video analysis system, wherein the experimental environment was kept absolutely silent, when grabbing animals and administrating, movements were gentle to minimize adverse reactions of mental condition and emotion brought by external stimulus. The rats were moved from the animal room to a quiet lab and adapted for at least two hours. Subcutaneous injection of PCP (5.0 mg/kg, s.c.), or 1% DMSO in physiological saline as control, was administrated. 30 minutes later, the animals were intraperitoneally injected with the test compound, or 1% DMSO in physiological saline as control. The rats were placed in a spontaneous activity box, which was placed in an absolutely silent environment. The spontaneous activity box was connected to a recording apparatus and the activity conditions of rats were recorded for 30-60 minutes. The effect of drug or control on spontaneous activity in […] was determined.

[3] = tested on: high-activity behaviors in rats induced by Amphetamine; assay: Effect on high-activity behaviors in rats induced by Amphetamine; type: in vivo, Wistar rats; settings: for inhibition of high-activity behaviors in rats induced by Amphetamine: Co. 1 5, 10 and 30 mg/kg i.p., Olanzepine 10 mg/kg i.p., Amphetamine 1.0 mg/kg s.c., P<0.01 vs Amphetamine group
Description: as §1, with “in group” for “in groups”, “into three” for “into two”
as §2
Group two: experimental drug group, the rats were intraperitoneally injected respectively with different amounts of test compound Co. 1: 5, 10 and 30 mg/kg, i.p., the drug was formulated in 1% DMSO in physiological saline.
Group three: positive drug control group, the rats were intraperitoneally injected with Olanzepine (10 mg/kg, i.p., the drug was formulated in 1% DMSO in physiological saline)
The experiment employed Shanghai Jiliang animal behavior video analysis system, wherein the experimental environment was kept absolutely silent, when grabbing animals and administrating, movements were gentle to minimize adverse reactions of mental condition and emotion brought by external stimulus. The rats were moved from the animal room to a quiet lab and adapted for at least two hours. Subcutaneous injection of Amphetamine (1.0 mg/kg, s.c.), or 1% DMSO in physiological saline as control, was administrated. 30 minutes later, the animals were orally administrated of the compound, or physiological saline as control. The rats were placed in a spontaneous activity box, which was placed in an absolutely silent environment. The spontaneous activity box was connected to a recording apparatus and the activity conditions of rats were recorded for 30-60 minutes. The effect of drug or control on spontaneous activity in rats was determined.

NET = NET (Homo sapiens, UniProt P23975); assay: Selectivity, NET; type: cell-based; settings: read-out: Selectivity NET pEC50 (converted)
Cmax in rat CSF = type: in vivo; settings: sc, 10 mg/kg s.c.
hERG = hERG (Homo sapiens, UniProt Q12809); assay: hERG (pKi); type: binding
GlyT1 = target: T1, GlyT1 (Homo sapiens, UniProt P48067); assay: Anti-glycine reuptake activity, GlyT1; type: cell-based; settings: listed as head criterion > 6; mean of three experiments; read-out: GlyT1 pEC50 (converted)
T1 sequence (P48067 1-706): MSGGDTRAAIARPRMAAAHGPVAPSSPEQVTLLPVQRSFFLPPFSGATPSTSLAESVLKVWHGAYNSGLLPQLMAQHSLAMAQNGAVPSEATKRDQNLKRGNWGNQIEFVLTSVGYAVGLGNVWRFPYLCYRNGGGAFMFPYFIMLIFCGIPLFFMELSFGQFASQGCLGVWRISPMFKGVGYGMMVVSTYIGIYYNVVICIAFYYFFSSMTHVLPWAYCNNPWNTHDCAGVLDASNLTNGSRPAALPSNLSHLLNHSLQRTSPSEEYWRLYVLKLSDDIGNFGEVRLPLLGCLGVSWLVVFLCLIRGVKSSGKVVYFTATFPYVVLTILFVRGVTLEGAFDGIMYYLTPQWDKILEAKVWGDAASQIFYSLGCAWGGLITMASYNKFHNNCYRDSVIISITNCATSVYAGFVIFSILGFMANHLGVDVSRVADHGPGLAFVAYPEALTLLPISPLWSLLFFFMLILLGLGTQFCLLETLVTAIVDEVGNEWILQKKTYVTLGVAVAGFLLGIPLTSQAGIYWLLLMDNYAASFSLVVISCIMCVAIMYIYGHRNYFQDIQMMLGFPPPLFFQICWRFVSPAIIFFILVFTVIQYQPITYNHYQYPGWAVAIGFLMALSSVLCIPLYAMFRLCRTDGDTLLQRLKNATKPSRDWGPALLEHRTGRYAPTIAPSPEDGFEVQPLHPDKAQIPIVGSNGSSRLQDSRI
Text: (§3) methods commonly used in the art were employed to determine the anti-glycine reuptake activity of the compound of the present invention. The experiment was repeated for three times and the mean value was taken.

Rat PK = type: in vivo
in vitro = in vitro ADME; settings: microsomes
Text: as §3

G1yT2 = target: T2, G1yT2 (Homo sapiens, UniProt Q9Y345); assay: Selectivity vs GlyT2; type: cell-based; settings: listed as head criterion >10 × vs G1yT2
T2 sequence (Q9Y345 1-797): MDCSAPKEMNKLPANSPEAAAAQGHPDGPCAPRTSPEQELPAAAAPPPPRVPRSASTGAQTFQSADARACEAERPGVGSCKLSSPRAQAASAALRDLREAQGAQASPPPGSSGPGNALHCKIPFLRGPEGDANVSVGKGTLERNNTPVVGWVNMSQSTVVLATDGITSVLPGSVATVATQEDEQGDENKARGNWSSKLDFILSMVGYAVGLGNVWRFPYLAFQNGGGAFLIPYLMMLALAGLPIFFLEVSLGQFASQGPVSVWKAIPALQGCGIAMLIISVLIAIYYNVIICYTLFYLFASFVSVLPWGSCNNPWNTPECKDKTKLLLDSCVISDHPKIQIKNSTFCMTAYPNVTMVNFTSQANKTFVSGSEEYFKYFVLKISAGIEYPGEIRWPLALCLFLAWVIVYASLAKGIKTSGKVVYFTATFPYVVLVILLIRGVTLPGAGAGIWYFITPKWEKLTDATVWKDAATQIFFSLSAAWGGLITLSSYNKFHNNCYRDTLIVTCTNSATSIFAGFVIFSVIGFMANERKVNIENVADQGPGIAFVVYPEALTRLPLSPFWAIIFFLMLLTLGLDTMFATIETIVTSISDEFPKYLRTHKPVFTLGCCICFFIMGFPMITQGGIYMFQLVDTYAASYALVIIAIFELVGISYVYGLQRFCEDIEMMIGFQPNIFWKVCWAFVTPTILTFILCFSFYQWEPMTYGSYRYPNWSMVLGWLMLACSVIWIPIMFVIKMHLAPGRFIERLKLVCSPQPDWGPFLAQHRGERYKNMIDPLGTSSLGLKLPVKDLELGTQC
Text: as §3

[4] = Measured Clint, R-heps (hepatocytes); type: in vitro ADME, rat

hERG, sequence (Q12809 whole entry): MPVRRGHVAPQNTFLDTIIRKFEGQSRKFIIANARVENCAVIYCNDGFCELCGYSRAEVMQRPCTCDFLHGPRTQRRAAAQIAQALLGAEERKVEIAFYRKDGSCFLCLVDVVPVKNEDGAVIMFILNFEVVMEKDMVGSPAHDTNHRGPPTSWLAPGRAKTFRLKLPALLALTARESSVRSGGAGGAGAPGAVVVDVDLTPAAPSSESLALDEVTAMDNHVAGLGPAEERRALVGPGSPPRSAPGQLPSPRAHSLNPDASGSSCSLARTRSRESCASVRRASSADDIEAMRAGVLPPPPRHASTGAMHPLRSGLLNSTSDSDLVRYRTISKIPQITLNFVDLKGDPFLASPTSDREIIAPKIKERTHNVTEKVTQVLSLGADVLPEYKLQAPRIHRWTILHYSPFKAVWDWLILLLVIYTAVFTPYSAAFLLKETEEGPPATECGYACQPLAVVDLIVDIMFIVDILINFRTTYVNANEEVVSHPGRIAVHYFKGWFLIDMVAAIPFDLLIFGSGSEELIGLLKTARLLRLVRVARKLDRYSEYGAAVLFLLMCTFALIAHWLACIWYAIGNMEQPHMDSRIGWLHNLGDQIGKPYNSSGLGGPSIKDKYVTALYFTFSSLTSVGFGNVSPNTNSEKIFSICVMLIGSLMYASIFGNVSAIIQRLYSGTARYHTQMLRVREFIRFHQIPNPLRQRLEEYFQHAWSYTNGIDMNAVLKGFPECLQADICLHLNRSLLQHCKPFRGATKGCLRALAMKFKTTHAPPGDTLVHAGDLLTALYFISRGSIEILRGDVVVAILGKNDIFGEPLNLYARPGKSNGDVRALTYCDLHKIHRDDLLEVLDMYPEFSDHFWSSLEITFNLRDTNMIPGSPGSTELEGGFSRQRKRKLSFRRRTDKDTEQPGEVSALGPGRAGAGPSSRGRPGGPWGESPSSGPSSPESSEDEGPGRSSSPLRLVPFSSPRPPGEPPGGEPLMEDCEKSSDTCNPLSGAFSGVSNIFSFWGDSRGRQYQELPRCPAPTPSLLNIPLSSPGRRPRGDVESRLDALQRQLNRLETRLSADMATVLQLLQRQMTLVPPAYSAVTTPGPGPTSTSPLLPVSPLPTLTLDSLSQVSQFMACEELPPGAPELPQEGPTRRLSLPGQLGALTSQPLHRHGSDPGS
NET, sequence (P23975 whole entry): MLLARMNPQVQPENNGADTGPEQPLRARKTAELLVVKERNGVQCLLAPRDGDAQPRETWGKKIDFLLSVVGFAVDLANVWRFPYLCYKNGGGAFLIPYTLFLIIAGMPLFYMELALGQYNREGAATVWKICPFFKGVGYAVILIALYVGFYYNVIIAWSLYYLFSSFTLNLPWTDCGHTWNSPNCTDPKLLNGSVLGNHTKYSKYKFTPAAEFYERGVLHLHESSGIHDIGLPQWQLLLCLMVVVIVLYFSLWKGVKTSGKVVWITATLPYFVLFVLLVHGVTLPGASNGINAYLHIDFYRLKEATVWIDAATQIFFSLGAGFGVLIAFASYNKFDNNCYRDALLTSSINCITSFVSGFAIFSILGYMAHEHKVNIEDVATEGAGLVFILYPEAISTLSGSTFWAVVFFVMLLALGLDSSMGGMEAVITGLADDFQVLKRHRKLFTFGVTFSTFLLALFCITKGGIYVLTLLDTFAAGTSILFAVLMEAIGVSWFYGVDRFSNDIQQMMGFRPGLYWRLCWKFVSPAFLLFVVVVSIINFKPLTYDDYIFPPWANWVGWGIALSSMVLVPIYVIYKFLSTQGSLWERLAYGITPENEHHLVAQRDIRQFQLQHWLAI

Structure (SMILES)	effect on spontaneous activity in rats [1]	inhibition of high-activity behaviors in rats induced by PCP [2]	inhibitory effect on PCP-induced high-activity behaviors compared with the positive drug Olanzepine ([2]; P<0.05, Dunnett's test, compared with the Olanzepine/PCP group)	inhibition of high-activity behaviors in rats induced by Amphetamine [3]	inhibitory effect on Amphetamine-induced high-activity behaviors compared with the positive drug Olanzepine ([3]; P<0.05, Dunnett's test, compared with the Olanzepine/Amphetamine group)	EC50 (NET)	Cmax (Cmax in rat CSF)	pKi (hERG)	EC50 (GlyT1)	Rat PK C1 (Rat PK)	Rat PK P (Rat PK)	microsomal CLint (in vitro; human)	microsomal CLint (in vitro; rat)	G1yT2 effect at 10-5 M (G1yT2)	Measured Clint R-heps [4]
Cc1cc(C(=O)N[C@@H](CN2CCCCC2)C(C)C)cc(-c2ccccc2C(F)(F)F)n1 [Co. 1]	no significant effect	significantly inhibited	stronger	significantly inhibited	stronger										
CCC(C)[C@@H](CN1CCCCC1)NC(=O)c1cc(C)nc(-c2cc(C)ccc2C(F)(F)F)c1 (some centres unmarked) [Co. 2]						316 nM	60 nM	4.90	63.1 nM	52 mL/min/kg	< 1%	135 µL/min/mg	81 µL/min/mg	14% @ 10-5 M	R-heps 15 ul/ml/106 cells
Cc1cc2c(s1)Nc1ccccc1N=C2N1CCN(C)CC1 [Olanzepine, reference compound]		significantly inhibited		significantly inhibited											
